Columns and labels:
Acetyl CoA synthetase = test: In vivo liver enzyme study: acetyl CoA synthetase; design: species or system mouse; details: CF1 liver after 16 days i.p.
Protocol: In vitro enzymatic studies were determined using 10% homogenates of CF1 male mouse liver with 50-200 μM of test drugs. In vivo enzymatic studies were determined using 10% homogenates of liver from CF1 male mice obtained after administering the agents for 16 days at a dose ranging from 2.5-20 mg/kg/day intraperitoneally. The liver homogenates for both in vitro and in vivo studies were prepared in 0.25M sucrose and 0.001M (ethylenedinitrilo)tetraacetic acid. Acetyl coenzyme A synthetase and adenosine triphosphate dependent citrate lyase activities were determined spectrophotometrically at 540 nm as the hydroxylamate of acetyl coenzyme A formed after 30 min at 37° C. Mitochondrial citrate exchange was determined by the procedure of Robinson et al [Eur. J. Biochem., 216, 63 (1970)] using ^14 C-sodium bicarbonate (41 mCi/mmol) incorporated into mitochondrial ^14 C-citrate after isolating rat mitochondria (9000 g×10 min) from the homogenates. The exchanges of the ^14 C-citrate were determined after incubating the mitochondrial fraction which was loaded with labeled citrate and test drugs for 10 min. Then the radioactivity was measured in the mitochondrial and supernantant fractions in scintillation fluid and expressed as a percentage. Cholesterol side chain oxidation was determined by the method of Kritchevsky and Tepper [Artherosclerosis, 18, 93 (1973)] using (26-^14 C) cholesterol (50 mCi/mmol) and mitochondria isolated from rat liver homogenates. […] Fatty acid synthetase activity was determined by the method of Brady et al [J. Biol. Chem., 235, 3093 (1960)] using [2-^14 C] malonyl-coenzyme A (37.5 mCi/mmol) which was incorporated into newly synthesized fatty acids that were extracted with ether and counted. Acyl transferase activity was determined with glycerol-3phosphate [L-2-^3 H(N)] […] HCl and counted. Phosphatidate phosphohydrolase activity was measured as the inorganic phosphate released after 30 min from phosphatidic acid by the method of Mavis et al [J. Lipid Res., 19, 467 (1978)]. […]

Holtzman male rats = test: Rat liver, small intestine and fecal lipid extraction; format: in vivo; details: 14 days 10 mg/kg/day orally

“{Cu[(CH3)3 N.BH2 CO2 ]2.(CH3)3 N.BH2 COOH} [Compound I]” was tested, and the “Acetyl CoA synthetase” value (Acetyl CoA synthetase; 2.5 mg/kg) was 62 ± 6% of control, the “Acetyl CoA synthetase” value (Acetyl CoA synthetase; 5.0 mg/kg) was 77 ± 7% of control and the “Acetyl CoA synthetase” value (Acetyl CoA synthetase; 10 mg/kg) was 73 ± 7% of control. For the same substance, the Cholesterol (Holtzman male rats; rat Feces) was 110 ± 6 Percent Control, the “Mg of Lipid Extracted” value (Holtzman male rats; rat Feces) was 123 ± 5 Percent Control and the “Neutral Lipids” value (Holtzman male rats; rat Feces) was 131 ± 7 Percent Control. It also gave a Phospholipids (Holtzman male rats; rat Feces) of 183 ± 8 Percent Control, a Protein (Holtzman male rats; rat Feces) of 68 ± 6 Percent Control and a Triglyceride (Holtzman male rats; rat Feces) of 133 ± 7 Percent Control. The Cholesterol (Holtzman male rats; rat Liver) was 65 ± 6 Percent Control, the “Mg of Lipid Extracted” value (Holtzman male rats; rat Liver) was 51 ± 5 Percent Control and the “Neutral Lipids” value (Holtzman male rats; rat Liver) was 93 ± 9 Percent Control. The Phospholipids (Holtzman male rats; rat Liver) was 93 ± 9 Percent Control, the Protein (Holtzman male rats; rat Liver) was 99 ± 7 Percent Control and the Triglyceride (Holtzman male rats; rat Liver) was 76 ± 7 Percent Control. The Cholesterol (Holtzman male rats; rat Small Intestine) was 47 ± 6 Percent Control, the “Mg of Lipid Extracted” value (Holtzman male rats; rat Small Intestine) was 43 ± 5 Percent Control and the “Neutral Lipids” value (Holtzman male rats; rat Small Intestine) was 17 ± 3 Percent Control. It also gave a Phospholipids (Holtzman male rats; rat Small Intestine) of 46 ± 5 Percent Control, a Protein (Holtzman male rats; rat Small Intestine) of 111 ± 8 Percent Control and a Triglyceride (Holtzman male rats; rat Small Intestine) of 40 ± 4 Percent Control.

Reference: patent US4550186A, “Binuclear copper (II) carboxylates formed from amine-carboxyboranes” (Duke University, priority 1983, dated 1985)
